Data published in US12161634B2, “Pyruvate kinase R (PKR) activating compositions” (Novo Nordisk Health Care AG, priority 2020, dated 2024).

Tests used:
[1] = Dynamic vapor sorption (DVS); assay type: physicochemical
Procedure: Dynamic Vapor Sorption (DVS) was measured with a Surface Measurement System (SMS) DVS Intrinsic.

[2] = Polymorph screening (solid form by XRPD); assay type: physicochemical
Procedure: Polymorph screening experiments were performed using a series of crystallization and solid transition methods.
Solid vapor diffusion experiments were conducted using 13 different solvents. Approximately 15 mg of Compound 1 (Type A) was weighed into a 4-mL vial, which was placed into a 20-mL vial with 3 mL of volatile solvent. The 20-mL vial was sealed with a cap and kept at RT for 7 days, allowing solvent vapor to interact with the sample.
Slurry experiments were conducted […] in different solvent systems. About 15 mg of Compound 1 (Type A) was suspended in 0.3 mL of solvent in a 2-mL glass vial. After the suspension was stirred magnetically for 7 days at 4° C., RT or 50° C., the remaining solids were isolated for XRPD analysis (Method A).
Approximately 15 mg of Compound 1 (Type A) was dissolved in an appropriate solvent to obtain a clear solution in a 4-mL vial. This solution was then placed into a 20-mL vial with 3 mL of anti-solvent. The 20-mL vial was sealed with a cap and kept at RT, allowing sufficient time for organic vapor to interact with the solution. After 7 days, solids were isolated for XRPD analysis (Method A).
(§1) Compound 1 (Type A) was weighed into a 3 mL glass vial with the addition of the corresponding solvent or solvent mixture. After being vortexed and ultrasonically shaken, the suspension was filtered, and the filtrate was transferred to a clean 4 mL shell vial. A small amount of Compound 1 (Type A) was added as a seed crystal. Subsequently, the shell vial was sealed with a polyethylene plug with one pinhole and enclosed in a 20 mL glass vial containing 3 mL of the anti-solvent at room temperature for liquid vapor diffusion. The solid forms resulting from the experiments were characterized by XRPD analysis (Method C).
Slow evaporation experiments were performed under 4 conditions. Briefly, about 15 mg of Compound 1 (Type A) was mixed with 1.0-2.5 mL of solvent in a 4-mL glass vial. If the solids were not dissolved completely, suspensions were filtered using a PTFE membrane (pore size of 0.2 μm) and the filtrates were used for the follow-up steps. The visually clear solutions were subjected to evaporation at RT with vials sealed by Parafilm® (3-5 pinholes).
as §1, with “placed” for “enclosed”, “fume hood” for “20 mL glass vial containing 3 mL of the anti-solvent”, “slow evaporation.” for “liquid vapor diffusion.”
A total of 8 anti-solvent addition experiments were carried out. About 15 mg of Compound 1 (Type A) was dissolved in 0.2-4.0 mL of solvent to obtain a clear solution. The solution was magnetically stirred followed by addition of 0.2 mL anti-solvent per step until precipitate appeared or the total amount of anti-solvent reached 15.0 mL. The obtained precipitate was isolated for XRPD analysis (Method A).
A total of 2 reverse anti-solvent addition experiments were carried out. About 15 mg of Compound 1 (type A) was dissolved in 0.2 mL solvent to obtain a clear solution. The solution was added into 2 mL anti-solvent. The obtained precipitate was isolated for XRPD analysis (Method A). Results summarized in Table 16 indicated Type A or a mixture of Type A and amorphous material were generated.
Compound 1 (Type A) was weighed into a 3 mL glass vial with the addition of the corresponding solvent or solvent mixture. After being vortexed and ultrasonically shaken to accelerate dissolution, the suspension was placed in a biochemical incubator and equilibrated at 50° C. for 30 minutes. […]

O=C([C@H](CO)c1ccccc1)N1CC2=C(C1)CN(S(=O)(=O)c1cnc3c(c1)OCCO3)C2 [Type A, (S)-1-(5-[2H,3H-[1,4]dioxino[2,3-b]pyridine-7-sulfonyl]-1H,2H,3H,4H,5H,6H-pyrrolo[3,4-c]pyrrol-2-yl)-3-hydroxy-2-phenylpropan-1-one]
hygroscopicity ([1]; DVS at RT): hygroscopic
water uptake from 40% RH to 80% RH ([1]; DVS, RT): 1.0%
water uptake up to 40% RH ([1]; DVS, up to 40% RH (ambient condition), RT): 3.4%
form change before and after DVS test ([1]; RT, determined by XRPD): No form change
Solid Form ([2]; liquid vapor diffusion RT 7 days, solvent 1,4-Dioxane, anti-solvent EtOAc): Type A
Solid Form ([2]; liquid vapor diffusion RT 7 days, solvent 1,4-Dioxane, anti-solvent MTBE): Type A
Solid Form ([2]; liquid vapor diffusion RT 7 days, solvent 1,4-Dioxane, anti-solvent MeOH): Type B
Solid Form ([2]; liquid vapor diffusion RT 7 days, solvent 1,4-Dioxane, anti-solvent Toluene): Type A
Solid Form ([2]; liquid vapor diffusion RT 7 days, solvent 1,4-Dioxane, anti-solvent n-Heptane): Type F
Solid Form ([2]; liquid vapor diffusion RT 7 days, solvent Acetone, anti-solvent H2O): Type B
Solid Form ([2]; liquid vapor diffusion RT 7 days, solvent Acetone, anti-solvent IPA): Type A
Solid Form ([2]; liquid vapor diffusion RT 7 days, solvent Acetone, anti-solvent MIBK): Type A
Solid Form ([2]; liquid vapor diffusion RT 7 days, solvent CHCl3, anti-solvent 2-MeTHF): Type A
Solid Form ([2]; liquid vapor diffusion RT 7 days, solvent CHCl3, anti-solvent EtOH): Type A
Solid Form ([2]; liquid vapor diffusion RT 7 days, solvent CHCl3, anti-solvent IPAc): Type A
Solid Form ([2]; liquid vapor diffusion RT 7 days, solvent THF, anti-solvent EtOAc): Type A
Solid Form ([2]; liquid vapor diffusion RT 7 days, solvent THF, anti-solvent MeOH): Type A
Solid Form ([2]; liquid vapor diffusion, seeded, RT, 3.0 mg in 0.5 mL MeOH, anti-solvent MTBE): Type B
Solid Form ([2]; liquid vapor diffusion, seeded, RT, 4.9 mg in 0.5 mL Acetone, anti-solvent MTBE): Type A
Solid Form ([2]; liquid vapor diffusion, seeded, RT, 10.0 mg in 0.5 mL ACN, anti-solvent MTBE): Type B
Solid Form ([2]; liquid vapor diffusion, seeded, RT, 10.1 mg in 0.5 mL ACN, anti-solvent H2O): Type B
Solid Form ([2]; liquid vapor diffusion, seeded, RT, 10.4 mg in 0.5 mL THF, anti-solvent n-pentane): Type D
Solid Form ([2]; liquid vapor diffusion, seeded, RT, 10.8 mg in 0.1 mL DMSO, anti-solvent IPA): Type A
Solid Form ([2]; liquid vapor diffusion, seeded, RT, 10.9 mg in 0.1 mL DMF, anti-solvent IPAc): Type I
Solid Form ([2]; liquid vapor diffusion, seeded, RT, 11.5 mg in 0.5 mL THF, anti-solvent MeOH): Type D
Solid Form ([2]; liquid vapor diffusion, seeded, RT, 12.1 mg in 0.5 mL THF, anti-solvent EtOAc): Type M
Solid Form ([2]; liquid vapor diffusion, seeded, RT, 17.6 mg in 0.5 mL 1,4-dioxane, anti-solvent n-heptane): Type A
Solid Form ([2]; liquid vapor diffusion, seeded, RT, 30.8 mg in 0.2 mL NMP, anti-solvent MTBE): Type J
Solid Form ([2]; liquid vapor diffusion, seeded, RT, 31.9 mg in 0.2 mL DMSO, anti-solvent H2O): Type A
Solid Form ([2]; liquid vapor diffusion, seeded, RT, 32.1 mg in 0.2 mL DMF, anti-solvent Toluene): Type H
Solid Form ([2]; liquid vapor diffusion, seeded, RT, 34.3 mg in 0.3 mL CHCl3, anti-solvent n-pentane): Type A
Solid Form ([2]; slow cooling 50° C. to 5° C., 15.4 mg in 1.5 mL 2-MeTHF): Type K
Solid Form ([2]; slow cooling 50° C. to 5° C., 15.7 mg in 1.5 mL EtOH): Type A
Solid Form ([2]; slow cooling 50° C. to 5° C., 20.3 mg in 1.5 mL EtOAc): Type B
Solid Form ([2]; slow cooling 50° C. to 5° C., 20.5 mg in 1.5 mL MeOH): Type B
Solid Form ([2]; slow cooling 50° C. to 5° C., 39.7 mg in 1.0 mL THF/H2O (1:1 v/v), then kept at 5° C. for 22 days): Type L
Solid Form ([2]; slow cooling 50° C. to 5° C., 40.3 mg in 0.8 mL ACN/H2O (2:1 v/v)): Type B
Solid Form ([2]; slow cooling 50° C. to 5° C., 40.3 mg in 1.0 mL Acetone/n-heptane (3:1 v/v)): Type A
Solid Form ([2]; slow cooling 50° C. to 5° C., 40.4 mg in 1.0 mL 1,4-dioxane/H2O (1:1 v/v)): Type B
Solid Form ([2]; slow cooling 50° C. to 5° C., 40.6 mg in 1.0 mL Acetone/H2O (2:1 v/v)): Type B
Solid Form ([2]; slow evaporation, seeded, RT, 3.0 mg in 1.0 mL MeOH): Type B
Solid Form ([2]; slow evaporation, seeded, RT, 3.2 mg in 0.5 mL EtOAc/2-MeTHF (1:1 v/v)): Type B
Solid Form ([2]; slow evaporation, seeded, RT, 3.2 mg in 1.0 mL EtOAc): Type B
Solid Form ([2]; slow evaporation, seeded, RT, 4.5 mg in 0.5 mL Acetone/EtOH (1:1 v/v)): Type A
Solid Form ([2]; slow evaporation, seeded, RT, 4.6 mg in 0.5 mL Acetone): Type A
Solid Form ([2]; slow evaporation, seeded, RT, 4.7 mg in 0.5 mL Acetone/EtOAc (1:1 v/v)): Type A
Solid Form ([2]; slow evaporation, seeded, RT, 5.0 mg in 0.5 mL ACN/MIBK (1:1 v/v)): Type A
Solid Form ([2]; slow evaporation, seeded, RT, 5.2 mg in 0.5 mL MeOH/Acetone (1:1 v/v)): Type B
Solid Form ([2]; slow evaporation, seeded, RT, 7.3 mg in 0.5 mL DCM/IPAc (1:1 v/v)): Type A
Solid Form ([2]; slow evaporation, seeded, RT, 9.6 mg in 0.5 mL THF/H2O (5:1 v/v)): Type B
Solid Form ([2]; slow evaporation, seeded, RT, 9.8 mg in 0.5 mL ACN/H2O (5:1 v/v)): Type B
Solid Form ([2]; slow evaporation, seeded, RT, 10.0 mg in 0.5 mL ACN): Type B
Solid Form ([2]; slow evaporation, seeded, RT, 10.1 mg in 0.5 mL THF): Type D
Solid Form ([2]; slow evaporation, seeded, RT, 10.7 mg in 0.5 mL THF/EtOH (1:1 v/v)): Type A
Solid Form ([2]; slow evaporation, seeded, RT, 10.8 mg in 0.5 mL DCM/n-heptane (1:1 v/v)): Type A
Solid Form ([2]; slow evaporation, seeded, RT, 11.1 mg in 0.5 mL ACN/EtOAc (1:1 v/v)): Type A
Solid Form ([2]; slow evaporation, seeded, RT, 13.0 mg in 0.5 mL Acetone/H2O (5:1 v/v)): Type B
Solid Form ([2]; slow evaporation, seeded, RT, 13.8 mg in 0.5 mL ACN/EtOH (1:1 v/v)): Type A
Solid Form ([2]; slow evaporation, seeded, RT, 14.4 mg in 0.5 mL ACN/2-MeTHF (1:1 v/v)): Type A
Solid Form ([2]; slow evaporation, seeded, RT, 17.3 mg in 0.5 mL ACN/IPA (4:1 v/v)): Type A
Solid Form ([2]; slow evaporation, seeded, RT, 22.7 mg in 0.5 mL CHCl3/IPA (1:1 v/v)): Type A
Solid Form ([2]; slow evaporation, seeded, RT, 22.9 mg in 0.5 mL CHCl3/toluene (1:1 v/v)): Type A
Solid Form ([2]; slow evaporation, seeded, RT, 27.7 mg in 0.5 mL ACN/n-heptane (10:1 v/v)): Type B
Solid Form ([2]; slow evaporation, seeded, RT, 32.9 mg in 0.5 mL 1,4-dioxane/H2O (4:1 v/v)): Gel
Solid Form ([2]; slurry of Type A 7 days, 1,4-Dioxane/MeOH (v/v, 1:1), 50° C.): Type A
Solid Form ([2]; slurry of Type A 7 days, 1,4-Dioxane/Toluene (v/v, 1:1), 50° C.): Type A
Solid Form ([2]; slurry of Type A 7 days, 1,4-Dioxane, 50° C.): Type A
Solid Form ([2]; slurry of Type A 7 days, 1,4-Dioxane, RT): Type C
Solid Form ([2]; slurry of Type A 7 days, 2-MeTHF, 50° C.): Type A
Solid Form ([2]; slurry of Type A 7 days, ACN/IPA (v/v, 1:3), 50° C.): Type A
Solid Form ([2]; slurry of Type A 7 days, ACN, 4° C.): Type A
Solid Form ([2]; slurry of Type A 7 days, Acetone/H2O (v/v, 1:3), 50° C.): Type B
Solid Form ([2]; slurry of Type A 7 days, Acetone/IPAc (v/v, 1:3), 50° C.): Type A
Solid Form ([2]; slurry of Type A 7 days, Acetone, RT): Type A
Solid Form ([2]; slurry of Type A 7 days, CHCl3/EtOAc (v/v, 1:3), 50° C.): Type A
Solid Form ([2]; slurry of Type A 7 days, CHCl3/MeOH (v/v, 1:3), 50° C.): Type A
Solid Form ([2]; slurry of Type A 7 days, CHCl3/Toluene (1/3), 4° C.): Type B + Type A
Solid Form ([2]; slurry of Type A 7 days, DCM/EtOH (v/v, 1:3), 50° C.): Type A
Solid Form ([2]; slurry of Type A 7 days, DCM/n-Heptane (1/3), 4° C.): Type A
Solid Form ([2]; slurry of Type A 7 days, DMSO/H2O (1/9), RT): Type B
Solid Form ([2]; slurry of Type A 7 days, EtOAc, 50° C.): Type A
Solid Form ([2]; slurry of Type A 7 days, EtOH, 50° C.): Type A
Solid Form ([2]; slurry of Type A 7 days, H2O, 50° C.): Type B
Solid Form ([2]; slurry of Type A 7 days, IPA, 50° C.): Type A
Solid Form ([2]; slurry of Type A 7 days, IPAc, 50° C.): Type A
Solid Form ([2]; slurry of Type A 7 days, MIBK, 50° C.): Type A
Solid Form ([2]; slurry of Type A 7 days, MTBE, 50° C.): Type A
Solid Form ([2]; slurry of Type A 7 days, MeOH, 50° C.): Type B
Solid Form ([2]; slurry of Type A 7 days, THF, 4° C.): Type D
Solid Form ([2]; slurry of Type A 7 days, THF, 50° C.): Type A
Solid Form ([2]; slurry of Type A 7 days, Toluene, 50° C.): Type A
Solid Form ([2]; slurry of Type A 7 days, n-Heptane, 50° C.): Type A
